Measured values: US12187713B2, “Immunomodulators, compositions and methods thereof” (Betta Pharmaceuticals Co., Ltd, priority 2019, dated 2025)

What was measured:
PD-1/PD-L1 = PD-1/PD-L1 (Homo sapiens (Human), UniProt Q9NZQ7); assay: PD-1/PD-L1 Binding Assay (Alphascreen)
How it was run: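 PD-1/PD-L1 binding detected by anti-6×His acceptor and streptavidin donor beads after 120 min in the dark at 25 °C. Beforehand, the two proteins were incubated 15 min at 25 °C with inhibitor at 0.015–300 nM (1% DMSO). IC50 comes from a log concentration–response curve.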

[1] = Pharmacokinetic Assay, single oral dose 5 mg/kg (Table 12); type: in vivo; conditions: mouse, plasma concentration, C57 female mice, single oral dose 5 mg/kg
How it was run: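 Adult female C57 mice (n=3) got one intragastric dose of 5 mg/kg in 15% DMSO, 10% Kolliphor HS 15, 75% saline. Retro-orbital blood was taken at 30 min, 2 h and 4 h into K2-EDTA. Plasma levels were measured by LC-MS/MS.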

Sequence of PD-1/PD-L1 (Q9NZQ7 19-238): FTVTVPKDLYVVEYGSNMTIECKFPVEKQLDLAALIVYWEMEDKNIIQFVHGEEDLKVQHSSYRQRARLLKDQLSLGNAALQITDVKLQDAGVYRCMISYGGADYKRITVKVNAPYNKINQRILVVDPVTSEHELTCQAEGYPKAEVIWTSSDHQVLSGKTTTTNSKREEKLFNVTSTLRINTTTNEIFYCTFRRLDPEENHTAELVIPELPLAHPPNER

SMILES | IC50 (PD-1/PD-L1; range symbols) [nM] | concentration at 0.5 h [1] [ng/mL] | concentration at 2 h [1] [ng/mL] | concentration at 4 h [1] [ng/mL] | IC50 (PD-1/PD-L1; numeric values) [nM]
COc1nc(-c2cccc(-c3cccc(-c4nc5cc(CN6CCC[C@H]6C(=O)O)c(OC(F)F)cc5o4)c3C)c2C)ccc1CNCC1CCC(=O)N1 (stereo partly drawn) [Example 276, ((6-(difluoromethoxy)-2-(3′-(6-methoxy-5-((((5-oxopyrrolidin-2-yl)methyl)amino)methyl)pyridin-2-yl)-2,2′-dimethyl-[1,1′-biphenyl]-3-yl)benzo[d]oxazol-5-yl)methyl)-L-proline] | 0.1 to 5 | 131 | 291 | 238 | 
Cc1c(-c2nc3cc(CN4CCC[C@H]4C(=O)O)c(OC(F)F)cc3o2)cccc1-c1cccc(-c2ccc(CN3CCCC3)s2)c1C [Example 280, ((6-(difluoromethoxy)-2-(2,2′-dimethyl-3′-(5-(pyrrolidin-1-ylmethyl)thiophen-2-yl)-[1,1′-biphenyl]-3-yl)benzo[d]oxazol-5-yl)methyl)-L-proline] |  | 33.6 | 171 | 113 | 5.7
Cc1c(-c2cnc(N3CCCC3)nc2)cccc1-c1cccc(-c2nc3cc(CN4CCC[C@H]4C(=O)O)c(OC(F)F)cc3o2)c1C [Example 283, ((6-(difluoromethoxy)-2-(2,2′-dimethyl-3′-(2-(pyrrolidin-1-yl)pyrimidin-5-yl)-[1,1′-biphenyl]-3-yl)benzo[d]oxazol-5-yl)methyl)-L-proline] | 5 to 50 | 522 | 1170 | 965 | 
COc1nc(-c2cccc(-c3cccc(-c4nc5cc(CN6CCC[C@H]6C(=O)O)c(OC(F)F)cc5o4)c3C)c2C)cnc1CN1CCCC1 [Example 285, ((6-(difluoromethoxy)-2-(3′-(6-methoxy-5-(pyrrolidin-1-ylmethyl)pyrazin-2-yl)-2,2′-dimethyl-[1,1′-biphenyl]-3-yl)benzo[d]oxazol-5-yl)methyl)-L-proline] | 0.1 to 5 | 39.1 | 80 | 41.8 | 
COc1nc(-c2cccc(-c3cccc(-c4nc5cc(CN6CCC[C@H]6C(=O)O)c(OC(F)F)cc5o4)c3C)c2C)cnc1CN1CC[C@@H](C)C1 [Example 286, ((6-(difluoromethoxy)-2-(3′-(6-methoxy-5-(((R)-3-methylpyrrolidin-1-yl)methyl)pyrazin-2-yl)-2,2′-dimethyl-[1,1′-biphenyl]-3-yl)benzo[d]oxazol-5-yl)methyl)-L-proline] | 0.1 to 5 | 20.5 | 73.8 | 52.2 | 
Cc1c(-c2ccc3c(c2)CCNC3)cccc1-c1cccc(-c2nc3cc(CN4CCC[C@H]4C(=O)O)c(OC(F)F)cc3o2)c1C [Example 288, ((6-(difluoromethoxy)-2-(2,2′-dimethyl-3′-(1,2,3,4-tetrahydroisoquinolin-6-yl)-[1,1′-biphenyl]-3-yl)benzo[d]oxazol-5-yl)methyl)-L-proline] |  | 8.36 | 25.4 | 9.68 | 1.5
Cc1c(-c2ccc3[nH]c(N)nc3c2)cccc1-c1cccc(-c2nc3cc(CN4CCC[C@H]4C(=O)O)c(OC(F)F)cc3o2)c1C [Example 293, ((2-(3′-(2-amino-1H-benzo[d]imidazol-5-yl)-2,2′-dimethyl-[1,1′-biphenyl]-3-yl)-6-(difluoromethoxy)benzo[d]oxazol-5-yl)methyl)-L-proline] |  | 6.68 | 10.8 | 3.57 | 11
COc1nc(-c2cccc(-c3cccc(-c4nc5cc(CN6CCC[C@H]6C(=O)O)c(OC(F)F)cc5o4)c3C)c2C)ccc1CN1CCC(C)(C)C1 [Example 294, ((6-(difluoromethoxy)-2-(3′-(5-((3,3-dimethylpyrrolidin-1-yl)methyl)-6-methoxypyridin-2-yl)-2,2′-dimethyl-[1,1′-biphenyl]-3-yl)benzo[d]oxazol-5-yl)methyl)-L-proline] | 0.1 to 5 | 80.4 | 193 | 186 | 
